Molecular target: T1, BDNF (Homo sapiens, UniProt P23560)
T1 construct: purchased human BDNF (Alomone Labs); noncovalent dimer; PDB 1B8M used only as docking model
T1 sequence (P23560 129-247): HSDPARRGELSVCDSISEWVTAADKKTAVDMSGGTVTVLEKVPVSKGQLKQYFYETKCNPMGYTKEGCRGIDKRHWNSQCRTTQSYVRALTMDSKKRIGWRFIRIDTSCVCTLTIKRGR
Experiment: surface plasmon resonance (Biacore T100, BDNF on CM5 chip, steady-state affinity fit)
Format: binding

SMILES: O=c1cc(-c2ccc(O)cc2)oc2cc(O)cc(O)c12 [apigenin]
- Kd: ~14.2 µM
